# Measurements: patent US20240252677A1, “ONE-COMPONENT DELIVERY SYSTEM FOR NUCLEIC ACIDS” (The Trustees of the University of Pennsylvania, priority 2021, published 2024)
# Marks after values point to notes of the source that are not given here.
# Experiments:
# lung = assay: In vivo mRNA delivery, IVIS imaging of organs: lung; design: species or system mice; key to Organs with luminescence: lung: strong: Strong meant the luminescence intensity in that organ was relatively high, compared to other organs; weak: Weak meant the luminescence intensity in that organ was relatively low, compared to other organs; settings: mice; for Organs with luminescence: lung: Table 17, IVIS, 4-6 h after injection, intensity relative to other organs
# [1] = Stability of DNPs by DLS after storage at 5° C.; assay type: physicochemical; design: key: Excellent: the original sizes and distribution types remained almost the same after storage; Good: the original sizes and distribution types changed slightly (size difference was less than 100 nm) or the original size remained almost the same but the DLS curve showed more size distributions after storage
# Description: (§1) The stability of the DNPs as assayed by DLS. All the samples are prepared in acetate buffer. The stabilities of the constructs were ranked: Excellent (in bold)—the original sizes and distribution remains almost the same after storage; Good—the original relatively big sizes became smaller or broad size distribution became narrower; Not stable—the original relatively big sizes or broad size distribution remained almost the similar level, or the original relatively small sizes became bigger or narrow size distribution became broader.
# [2] = Dimensions (size, PDI) of DNPs co-assembled from IAJDs and Luc-mRNA by DLS; assay type: physicochemical
# Summary of the method: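 Hydrodynamic size and PDI were read by dynamic light scattering at 23 °C, 175° backscatter, 633 nm. Particles formed by fast injection of ethanolic IAJD stock (80 mg/mL) into nucleoside-modified luciferase mRNA (stock 4.0 mg/mL) in 10 mM acetate pH 4.0, 5 s vortex.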
# [3] = Stability of DNPs by DLS after storage at 5° C.; assay type: physicochemical; design: key to Original size distribution type (DLS curve) / Size distribution type (DLS curve): U: DLS curve showed unimodal size distribution; B: DLS curve showed bimodal size distribution; M: DLS curve showed multimodal size distribution; settings: for pH Sample: DNPs: IAJD 4.0 mg/mL + Luc-mRNA 0.1 mg/mL, injection in acetate buffer pH 4.00; for PDI / Size (d, nm) / Original size distribution type (DLS curve): IAJD 4.0 mg/mL + Luc-mRNA 0.1 mg/mL; for PDI / Size (d, nm): acetate buffer; for Original size distribution type (DLS curve): before storage, acetate buffer pH 4.00
# Description: as §1
# BALB/c mice = assay: In vivo mRNA delivery in mice with DNPs, whole-body bioluminescence imaging (IVIS); settings: Table 19; nonsymmetric IAJDs
# Description: The exposure time was 1 min.
# Luminescence characterization for in vivo transfection experiments employed bioluminescence imaging with an IVIS Spectrum imaging system (PerkinElmer, Waltham, MA). Mice were anesthetized with 3% of isoflurane (Piramal Healthcare Limited) and intraperitoneally (i.p.) administered with D-luciferin (Regis Technologies) at a dose of 150 mg/kg of body weight. Ten minutes post administration of D-luciferin, mice were placed on the imaging platform while being maintained on isoflurane via a nose cone and imaged using an exposure time of 60 seconds. […] To quantify luminescent flux, an oval ROI was placed over each organ of interest and analyzed.
# Tissue luminescence signal was measured on the IVIS imaging system using an exposure time of 60 seconds using medium binning (binning=8) to ensure that the signal obtained was within operative detection range. […] Bioluminescence imaging was performed as described above.
# Luminescence Characterization for In Vivo Transfection Experiments: bioluminescence imaging was performed with an IVIS Spectrum imaging system (PerkinElmer, Waltham, MA).
# [4] = Table 16, DNPs from IAJD 4 mg/mL and Luc-mRNA 0.10 mg/mL by injection in acetate buffer (10 mM, pH 4.0)
# [5] = Table 17, DNPs used in vivo, IAJD 4 mg/mL, Luc-mRNA 0.10 mg/mL, acetate pH 4.0
Compound,"PDI [2, 4]","Size (d, nm) [2, 4]","PDI [2, 5]","Size (d, nm) [2, 5]",pH Sample [3],Original size distribution type (DLS curve) [3],Ranking of stability ([1]; after 19 days at 5° C.),Size distribution type (DLS curve) ([3]; after 19 days at 5° C.),PDI ([3]; after 19 days at 5° C.),"Size (d, nm) ([3]; after 19 days at 5° C.)",Organs with luminescence: lung (lung),"In vivo activity (total flux, p/s) (BALB/c mice)",further results
CCCCCCCCCCCOc1cc(COC(=O)c2cc(OCCOCCOCCCC(=O)CCCN3CCCCC3)c(OCCOCCOCCOCc3ccccc3)c(OCCOCCOCCOC(=O)CCCN3CCCCC3)c2)cc(OCCCCCCCCCCC)c1 [IAJD 111],0.232,99 nm,0.232,99 nm,4.84,(U),–,–,–,–,"Lung (strong),",–,"activity in lung (in words) (lung; Luc-mRNA DNPs): very high activity to lung; Ranking of stability ([1]; after 75 days at 5° C.): Excellent; Size distribution type (DLS curve) ([3]; after 75 days at 5° C.): (U); PDI ([3]; after 75 days at 5° C.): 0.227; Size (d, nm) ([3]; after 75 days at 5° C.): 96 nm"
"CCCCCCCCCCCOc1cc(COC(=O)CCCN2CCN(CCO)CC2)cc(OCCCCCCCC)c1 [IAJD 113, 3-(Octyloxy)-5-(undecyloxy)benzyl 4-(4-(2-hydroxyethyl)piperazin-1-yl)butanoate]",0.511,181 nm,0.511,181 nm,4.48,(B)^b,–,–,–,–,–,1.70 × 10^7 p/s,"Ranking of stability ([1]; after 70 days at 5° C.): Excellent; Size distribution type (DLS curve) ([3]; after 70 days at 5° C.): (B); PDI ([3]; after 70 days at 5° C.): 0.365; Size (d, nm) ([3]; after 70 days at 5° C.): 184 nm"
"CCCCCCCCCCCOc1cc(COC(=O)CCCN2CCN(CCO)CC2)cc(OCCCCCCCCCC)c1 [IAJD 115, 3-(Decyloxy)-5-(undecyloxy)benzyl 4-(4-(2-hydroxyethyl)piperazin-1-yl)butanoate]",0.367,123 nm,0.367,123 nm,4.44,(U),–,–,–,–,"Lung (weak),",4.59 × 10^6 p/s,"Ranking of stability ([1]; after 70 days at 5° C.): Excellent; Size distribution type (DLS curve) ([3]; after 70 days at 5° C.): (U); PDI ([3]; after 70 days at 5° C.): 0.383; Size (d, nm) ([3]; after 70 days at 5° C.): 134 nm"
"CCCCCCCCCCCOc1cc(COC(=O)CCCN2CCN(CCO)CC2)cc(OCCCCCCCCC)c1 [IAJD 122, 3-(Nonyloxy)-5-(undecyloxy)benzyl 4-(4-(2-hydroxyethyl)piperazin-1-yl)butanoate]",0.337,215 nm,0.337,215 nm,4.49,(B),–,–,–,–,"Lung (weak),",2.50 × 10^7 p/s,"Ranking of stability ([1]; after 62 days at 5° C.): Excellent; Size distribution type (DLS curve) ([3]; after 62 days at 5° C.): (B); PDI ([3]; after 62 days at 5° C.): 0.346; Size (d, nm) ([3]; after 62 days at 5° C.): 192 nm"
"CCCCCCCCCCCCOc1cc(COC(=O)CCCN2CCN(CCO)CC2)cc(OCCCCCCCCCCC)c1 [IAJD 124, 3-(Dodecyloxy)-5-(undecyloxy)benzyl 4-(4-(2-hydroxyethyl)piperazin-1-yl)butanoate]",0.280,276 nm,0.280,276 nm,4.51,(U),–,–,–,–,"Lung (weak),",3.77 × 10^7 p/s,"Ranking of stability ([1]; after 62 days at 5° C.): Good; Size distribution type (DLS curve) ([3]; after 62 days at 5° C.): (B); PDI ([3]; after 62 days at 5° C.): 0.240; Size (d, nm) ([3]; after 62 days at 5° C.): 284 nm"
CCCCCCCCCCCOc1cc(COC(=O)c2cc(OCCOCCOCCCC(=O)CCCN3CCCCC3)c(OCCOCCOCCOCc3ccccc3)c(OCCOCCOCCOC(=O)CCCN3CCCCC3)c2)cc(OCC(CC)CCCC)c1 (centres unmarked) [IAJD 155],0.279,83 nm,0.279,83 nm,4.93,(U),Excellent,(U),0.259,86 nm,"Lung (strong),",–,–
CCCCCCCCCCCCCCCCCOc1cc(COC(=O)c2cc(OCCOCCOCCCC(=O)CCCN3CCCCC3)c(OCCOCCOCCOCc3ccccc3)c(OCCOCCOCCOC(=O)CCCN3CCCCC3)c2)cc(OCCCCCCCCCCC)c1 [IAJD 158],0.246,75 nm,0.246,75 nm,4.83,(U),Excellent,(U),0.258,77 nm,Lung (strong),–,–

# Further lines, with some results ahead:
"PDI [2, 4]","Size (d, nm) [2, 4]","PDI [2, 5]","Size (d, nm) [2, 5]",pH Sample [3],Original size distribution type (DLS curve) [3],Ranking of stability ([1]; after 19 days at 5° C.),Size distribution type (DLS curve) ([3]; after 19 days at 5° C.),PDI ([3]; after 19 days at 5° C.),"Size (d, nm) ([3]; after 19 days at 5° C.)",Compound,Organs with luminescence: lung (lung),"In vivo activity (total flux, p/s) (BALB/c mice)",further results
0.474,212 nm,0.474,212 nm,4.40,(B),–,–,–,–,"CCCCCCCCCCCCCCCCOc1cc(COC(=O)CCCN2CCN(CCO)CC2)cc(OCCCCCCCCCCC)c1 [IAJD 120, 3-(Hexadecyloxy)-5-(undecyloxy)benzyl 4-(4-(2-hydroxyethyl)piperazin-1-yl)butanoate]",–,2.48 × 10^7 p/s,"Ranking of stability ([1]; after 70 days at 5° C.): Excellent; Size distribution type (DLS curve) ([3]; after 70 days at 5° C.): (B); PDI ([3]; after 70 days at 5° C.): 0.289; Size (d, nm) ([3]; after 70 days at 5° C.): 177 nm"
0.414,228 nm,0.414,228 nm,4.63,(B),–,–,–,–,"CCCCCCCCCCCCCCOc1cc(CNC(=O)CCCN2CCN(C)CC2)cc(OCCCCCCCCCCC)c1 [IAJD 133, 4-(4-Methylpiperazin-1-yl)-N-(3-(tetradecyloxy)-5-(undecyloxy)benzyl)butanamide]","Lung (strong),",–,"Ranking of stability ([1]; after 42 days at 5° C.): Excellent; Size distribution type (DLS curve) ([3]; after 42 days at 5° C.): (B); PDI ([3]; after 42 days at 5° C.): 0.454; Size (d, nm) ([3]; after 42 days at 5° C.): 216 nm"
0.236,75 nm,0.236,75 nm,4.82,(U),Excellent,(U),0.242,78 nm,CCCCCCCCCCCCCCOc1cc(COC(=O)c2cc(OCCOCCOCCCC(=O)CCCN3CCCCC3)c(OCCOCCOCCOCc3ccccc3)c(OCCOCCOCCOC(=O)CCCN3CCCCC3)c2)cc(OCCCCCCCCCCC)c1 [IAJD 156],Lung (strong),–,–
0.238,68 nm,0.238,68 nm,4.84,(U),Excellent,(U),0.255,71 nm,CCCCCCCCCCCCCCCOc1cc(COC(=O)c2cc(OCCOCCOCCCC(=O)CCCN3CCCCC3)c(OCCOCCOCCOCc3ccccc3)c(OCCOCCOCCOC(=O)CCCN3CCCCC3)c2)cc(OCCCCCCCCCCC)c1 [IAJD 157],Lung (strong),–,–
